Two molecules from EP3892265A1, “COMPOSITION FOR SUPPRESSING BLOOD PRESSURE ELEVATION AND METHOD FOR SUPPRESSING BLOOD PRESSURE ELEVATION” (Suntory Holdings Limited, priority 2018, dated 2020) can be followed below.

By inhibition is commonly meant the relative decrease from the control value, in per cent.

The subject of assay [1] is human umbilical vein endothelial cells (HUVECs, Lonza). The experiment in a line: Promotion of nitric oxide (NO) production from vascular endothelial cells, DAF-2 fluorescence. The assay is classed as cell-based. To be noted: 24 hours, relative to control group; for Relative amount of NO released (%) Average: n = 5. Here is the method: The effect of xanthohumol (produced by Gifu Shellac Manufacturing Co., Ltd.) in promoting nitric oxide (NO) production from vascular endothelial cells was evaluated by the following procedure.
Specifically, human umbilical vein endothelial cells (HUVECs, Lonza) were treated with xanthohumol for 24 hours, and the amount of nitric oxide (NO) production was measured (n = 5).
HUVECs in a medium (EGM-2, Lonza) were seeded onto a 96-well plate at 10000 cells/0.1 mL/well, and cultured in a CO2 incubator. On the following day, the medium of a xanthohumol-added group was replaced by a medium to which xanthohumol was added; the control group was transferred to a control medium; and the positive control group was transferred to a medium containing positive control (Lovastatin, 10 µM) . Then, these groups were cultured in a CO2 incubator for additional 24 hours.
The medium to which xanthohumol was added was prepared by dissolving xanthohumol in dimethyl sulfoxide (DMSO) and adding the solution to a medium such that the final concentration of xanthohumol was 1 µg/mL, 3 µg/mL, or 10 µg/mL. The control medium was prepared by adding DMSO to a medium to the same concentration as that in the xanthohumol-added group. The medium containing positive control was prepared by adding a solution of lovastatin in DMSO to a medium such that the final concentration of lovastatin (produced by FUJIFILM Wako Pure Chemical Corporation) was 10 µM.
After culturing for 24 hours, diaminofluorescein-2 diacetate (DAF-2, Goryo Chemical, Inc.) was added to each medium to a final concentration of 10 µM, followed by incubation in a CO2 incubator for two hours. Subsequently, the culture supernatant was transferred to a 96-well plate (black plate), and the fluorescence intensity (ex. 495 nm, em. 515 nm) was measured. The fluorescence intensity relative to the fluorescence intensity of the control group was determined as the relative amount of NO released. Significant difference was tested between the groups (control group vs. xanthohumol-added group) by Student's t-test (significant level: p < 0.05). […]

Assay [2] has as its target T1, angiotensin-converting enzyme (ACE) (Homo sapiens, UniProt P12821).
T1 construct: purchased Dojindo Laboratories
The experiment in a line: ACE inhibitory activity measured with ACE Kit-WST (Dojindo Laboratories). The assay is classed as biochemical. To be noted: n = 4. Here is the method: The angiotensin-converting enzyme (ACE) inhibitory effect of xanthohumol was evaluated by the following procedure.
Specifically, the ACE inhibitory activity was measured for the case where xanthohumol (produced by Gifu Shellac Manufacturing Co., Ltd.) was added as a test substance (n = 4 per level), using an ACE Kit-WST (Dojindo Laboratories) according to the instructions accompanying the kit.
A level with addition of distilled water instead of xanthohumol was set as a control group.
A level with no addition of xanthohumol which was measured in an ACE (enzyme)-free reaction system was set as an enzyme-free group.
The ACE inhibitory activity (%) of the test substance was calculated using the following formula 1. Significant difference was tested between the groups (control group vs. test substance-added group) by Student's t-test (significant level: p < 0.05). ACE inhibitory activity(%); = 100 × ((absorbanceat450nmofcontrolgroup)−; (absorbance at 450 nm in test substance−added; group))/((absorbanceat450nmofcontrolgroup)−; (absorbanceat450nmofenzyme-freegroup)) [formula]

Where [3] appears, read: Xanthohumol concentration 3 µg/mL.
The mark [4] stands for this setting: Xanthohumol concentration 10 µg/mL.

T1 sequence (P12821 30-1306, species assumed): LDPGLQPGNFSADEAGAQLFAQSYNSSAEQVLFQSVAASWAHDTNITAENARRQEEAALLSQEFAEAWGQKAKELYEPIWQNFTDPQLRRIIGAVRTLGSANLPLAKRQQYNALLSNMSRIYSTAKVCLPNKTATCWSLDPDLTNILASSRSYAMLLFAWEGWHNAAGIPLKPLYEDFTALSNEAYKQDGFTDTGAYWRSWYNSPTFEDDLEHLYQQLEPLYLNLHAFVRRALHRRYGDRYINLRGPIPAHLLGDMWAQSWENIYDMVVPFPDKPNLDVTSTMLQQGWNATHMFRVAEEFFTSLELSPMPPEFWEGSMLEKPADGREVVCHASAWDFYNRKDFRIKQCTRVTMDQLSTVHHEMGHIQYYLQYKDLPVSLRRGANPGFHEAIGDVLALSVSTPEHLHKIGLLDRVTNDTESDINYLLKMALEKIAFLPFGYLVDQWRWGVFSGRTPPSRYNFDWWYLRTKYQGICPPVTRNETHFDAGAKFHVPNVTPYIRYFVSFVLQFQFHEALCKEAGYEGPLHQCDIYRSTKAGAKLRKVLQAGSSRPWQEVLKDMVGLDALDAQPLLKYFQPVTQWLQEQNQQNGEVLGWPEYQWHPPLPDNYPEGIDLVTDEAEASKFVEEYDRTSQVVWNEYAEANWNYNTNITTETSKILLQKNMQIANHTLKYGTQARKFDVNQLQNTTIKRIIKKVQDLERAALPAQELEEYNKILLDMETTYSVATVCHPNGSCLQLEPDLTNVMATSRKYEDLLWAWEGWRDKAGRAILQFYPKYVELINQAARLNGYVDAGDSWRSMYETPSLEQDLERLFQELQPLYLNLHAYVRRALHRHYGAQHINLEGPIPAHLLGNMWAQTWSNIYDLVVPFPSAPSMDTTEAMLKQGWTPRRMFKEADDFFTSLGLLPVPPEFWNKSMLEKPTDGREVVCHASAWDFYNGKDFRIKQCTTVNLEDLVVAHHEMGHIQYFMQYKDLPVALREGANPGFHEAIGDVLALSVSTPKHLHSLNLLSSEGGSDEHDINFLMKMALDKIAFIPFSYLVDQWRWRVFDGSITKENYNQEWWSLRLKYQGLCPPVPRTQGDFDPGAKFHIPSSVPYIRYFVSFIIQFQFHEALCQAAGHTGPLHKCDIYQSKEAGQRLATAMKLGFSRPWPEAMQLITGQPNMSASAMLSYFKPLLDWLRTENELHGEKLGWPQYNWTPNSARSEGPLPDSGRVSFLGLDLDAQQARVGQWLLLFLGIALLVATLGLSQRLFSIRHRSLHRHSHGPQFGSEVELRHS

In the case of `CC[C@H](C)C(=O)O[C@H]1C[C@@H](C)C=C2C=C[C@H](C)[C@H](CC[C@@H]3C[C@@H](O)CC(=O)O3)[C@H]21` [positive control, Lovastatin, reference compound], in assay [1] (Lovastatin 10 µM, average ± standard error), the “relative amount of NO released” value is given as 122.8 ± 2.7%.
Take `COc1cc(O)c(CC=C(C)C)c(O)c1C(=O)/C=C/c1ccc(O)cc1` [Xanthohumol]: the “Relative amount of NO released (%) Average” value in assay [1] (Xanthohumol concentration 1 µg/mL) is 108.3%; in assay [1] (setting [3]) it was 124.8%; in assay [1] (setting [4]), 147.5%. In addition, the inhibition at 3 µg/mL in assay [2] (setting [3]) amounted to 3.33%. In addition, in assay [2] (setting [4]), the inhibition at 10 µg/mL came out at 15.8%. For the same molecule, the inhibition at 30 µg/mL in assay [2] (Xanthohumol concentration 30 µg/mL) is 19.5%.
